# Test results reported in patent publication US9624214B2, “Amino-substituted imidazo[1,2-a]pyridinecarboxamides and their use” (BAYER PHARMA AKTIENGESELLSCHAFT, priority 2012, dated 2017).
# Counter-ions that a name gives are not always drawn.
# Target: T1, recombinant guanylate cyclase reporter cell line (Rattus norvegicus, UniProt P19686+P20595)
# T1 construct: expressed in transfected cells
# T1 sequence (P20595 1-619): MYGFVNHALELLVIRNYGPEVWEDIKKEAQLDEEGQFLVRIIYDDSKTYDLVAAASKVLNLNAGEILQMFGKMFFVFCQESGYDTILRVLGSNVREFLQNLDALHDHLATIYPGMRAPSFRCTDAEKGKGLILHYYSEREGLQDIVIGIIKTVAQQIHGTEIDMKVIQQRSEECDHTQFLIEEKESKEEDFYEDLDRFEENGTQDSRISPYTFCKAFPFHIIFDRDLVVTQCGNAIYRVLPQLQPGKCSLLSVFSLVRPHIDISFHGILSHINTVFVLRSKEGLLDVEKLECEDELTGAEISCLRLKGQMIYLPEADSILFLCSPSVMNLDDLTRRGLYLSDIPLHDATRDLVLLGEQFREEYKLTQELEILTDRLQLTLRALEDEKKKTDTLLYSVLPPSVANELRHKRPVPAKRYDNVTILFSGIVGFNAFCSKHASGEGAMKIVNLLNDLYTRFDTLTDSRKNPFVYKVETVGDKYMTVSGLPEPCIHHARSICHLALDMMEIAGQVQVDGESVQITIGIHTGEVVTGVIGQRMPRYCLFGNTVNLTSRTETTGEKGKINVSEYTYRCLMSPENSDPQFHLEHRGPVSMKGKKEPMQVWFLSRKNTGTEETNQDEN
# T1 sequence (P19686 1-690): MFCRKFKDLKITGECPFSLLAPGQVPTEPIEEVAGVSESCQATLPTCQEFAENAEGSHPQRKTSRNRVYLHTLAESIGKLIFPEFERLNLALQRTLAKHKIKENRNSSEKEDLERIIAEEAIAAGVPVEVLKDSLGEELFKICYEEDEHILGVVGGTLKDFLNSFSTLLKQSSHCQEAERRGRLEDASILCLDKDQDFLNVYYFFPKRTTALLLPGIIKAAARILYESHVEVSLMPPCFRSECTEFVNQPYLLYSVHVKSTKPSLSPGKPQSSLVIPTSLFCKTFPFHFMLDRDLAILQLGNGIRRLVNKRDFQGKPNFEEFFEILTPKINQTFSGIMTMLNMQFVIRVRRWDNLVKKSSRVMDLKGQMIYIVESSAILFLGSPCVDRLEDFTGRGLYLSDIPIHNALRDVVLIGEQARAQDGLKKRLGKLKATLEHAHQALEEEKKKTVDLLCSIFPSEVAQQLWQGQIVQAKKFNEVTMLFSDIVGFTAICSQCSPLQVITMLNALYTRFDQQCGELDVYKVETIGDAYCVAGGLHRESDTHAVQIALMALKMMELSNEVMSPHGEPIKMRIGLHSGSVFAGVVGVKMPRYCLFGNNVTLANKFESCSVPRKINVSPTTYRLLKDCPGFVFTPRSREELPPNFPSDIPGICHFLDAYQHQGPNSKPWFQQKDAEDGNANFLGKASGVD
# Assay: B-2. Action on recombinant guanylate cyclase reporter cell line
# Assay type: cell-based
# Details: MEC = minimal effective concentration; in some cases mean values from individual determinations
# Summary of the method: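 MEC values, meaning the lowest concentration producing a detectable response, were taken from a recombinant cyclase reporter cell assay. Where repeated, individual determinations were averaged.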
row,MEC [µM],SMILES
1,0.65,"Cc1nc2c(OCc3c(F)cccc3F)cccn2c1C(=O)NC(CN)CC(F)(F)F (racemic) [Example 2, rac-N-(1-Amino-4,4,4-trifluorobutan-2-yl)-8-[(2,6-difluorobenzyl)oxy]-2-methylimidazo[1,2-a]-pyridine-3-carboxamide]"
2,0.03,"Cc1nc2c(OCc3c(F)cccc3F)cccn2c1C(=O)NCC(C)(N)CCOCc1ccccc1 (single isomer, unassigned; enantiomer a) [Example 266, ent-N-[2-Amino-4-(benzyloxy)-2-methylbutyl]-8-[(2,6-difluorobenzyl)oxy]-2-methylimidazo[1,2-a]pyridine-3-carboxamide (Enantiomer A)]"
3,0.30,"CCCC(C)(N)CNC(=O)c1c(C)nc2c(OCc3c(F)cccc3F)cccn12 (stereo not drawn) [Example 318, ent-N-(2-amino-2-methylpentyl)-8-[(2,6-difluorobenzyl)oxy]-2-methylimidazo[1,2-a]pyridine-3-carboxamide]"
4,0.30,"Cc1nc2c(OCc3c(F)cccc3F)cccn2c1C(=O)NC(CN)c1ccccc1 (racemic) [Example 16, rac-N-(2-Amino-1-phenylethyl)-8-[(2,6-difluorobenzyl)oxy]-2-methylimidazo[1,2-a]pyridine-3-carboxamide Dihydrochloride]"
5,0.30,"Cc1cc(OCc2c(F)cccc2F)c2nc(C)c(C(=O)NCC(C)(N)CC(C)C)n2c1 (single isomer, unassigned) [Example 219, ent-N-(2-Amino-2,4-dimethylpentyl)-8-[(2,6-difluorobenzyl)oxy]-2,6-dimethylimidazo[1,2-a]-pyridine-3-carboxamide]"
6,1.00,"Cc1nc2c(OCc3c(F)cccc3F)cccn2c1C(=O)NC(C)[C@@H](C)N (single isomer, unassigned) [Example 176]"
7,2.00,"Cc1nc2c(OCc3c(F)cccc3F)cccn2c1C(=O)NCCN(C)C [Example 86, 8-[(2,6-difluorobenzyl)oxy]-N-[2-(dimethyl-amino)ethyl]-2-methylimidazo[1,2-a]pyridine-3-carboxamide]"
8,0.3,"Cc1cc(OCc2c(F)cccc2F)c2nc(C)c(C(=O)NCC(C)(N)CF)n2c1 (racemic) [Example 282, rac-N-(2-amino-3-fluoro-2-methylpropyl)-8-[(2,6-difluorobenzyl)oxy]-2,6-dimethylimidazo[1,2-a]pyridine-3-carboxamide Formate]"
9,0.3,"CCC(C)(N)CNC(=O)c1c(C)nc2c(OCc3c(F)cccc3F)cc(C(F)F)cn12 (single isomer, unassigned; enantiomer a) [Example 287, ent-N-(2-amino-2-methylbutyl)-8-[(2,6-difluorobenzyl)oxy]-6-(difluoromethyl)-2-methylimidazo[1,2-a]pyridine-3-carboxamide Formate (Enantiomer A)]"
10,0.04,"CC[C@](C)(N)CNC(=O)c1c(C)nc2c(OCc3c(F)cccc3F)cc(C)cn12 (single isomer, unassigned) [Example 200]"
11,1.00,"Cc1nc2c(OCc3c(F)cccc3F)cccn2c1C(=O)NCC(C)CN (single isomer, unassigned) [Example 95, ent-N-(3-Amino-2-methylpropyl)-8-[(2,6-difluorobenzyl)oxy]-2-methylimidazo[1,2-a]pyridine-3-carboxamide Dihydrochloride]"

# The next lines start with the compound.
row,SMILES,MEC [µM]
1,"Cc1cc(OCc2c(F)cccc2F)c2nc(C)c(C(=O)NCC3CN(Cc4ccccc4)CCO3)n2c1 (racemic) [Example 344, rac-N-[(4-benzylmorpholin-2-yl)methyl]-8-[(2,6-difluorobenzyl)oxy]-2,6-dimethylimidazo[1,2-a]pyridine-3-carboxamide]",1.00
2,"Cc1cc(OCc2c(F)cccc2F)c2nc(C)c(C(=O)NCC(N)c3cccc(C(F)(F)F)c3)n2c1 (racemic) [Example 376, rac-N-{2-amino-2-[3-(trifluoromethyl)phenyl]ethyl}-8-[(2,6-difluorobenzyl)oxy]-2,6-dimethylimidazo[1,2-a]pyridine-3-carboxamide]",3.00
3,"CCC(C)(N)CNC(=O)c1c(C)nc2c(OCc3c(F)ccc(F)c3F)cc(C)cn12 (single isomer, unassigned; enantiomer b) [Example 275, ent-N-(2-Amino-2-methylbutyl)-2,6-dimethyl-8-[(2,3,6-trifluorobenzyl)oxy]imidazo[1,2-a]-pyridine-3-carboxamide (Enantiomer B)]",0.10
4,"CCCC(C)(N)CNC(=O)c1c(C)nc2c(OCc3ccccc3Br)cc(C)cn12 (stereo not shown) [Example 353, N-(2-amino-2-methylpentyl)-8-[(2-bromobenzyl)oxy]-2,6-dimethylimidazo[1,2-a]pyridine-3-carboxamide]",3.00
5,"Cc1nc2c(OCc3c(F)cc(F)cc3F)cccn2c1C(=O)NC(CN)c1ccc(F)c(F)c1 (stereo not drawn) [Example 101, ent-N-[2-amino-1-(3,4-difluorophenyl)ethyl]-2-methyl-8-[(2,4,6-trifluorobenzyl)oxy] imidazo[1,2-a]pyridine-3-carboxamide]",1.00
6,"Cc1cc(OCc2c(F)ccc(F)c2F)c2nc(C)c(C(=O)NCC(C)(N)CF)n2c1 (single isomer, unassigned; enantiomer b) [Example 286, ent-N-(2-amino-3-fluoro-2-methylpropyl)-2,6-dimethyl-8-[(2,3,6-trifluorobenzyl)oxy]imidazo[1,2-a]pyridine-3-carboxamide (Enantiomer B)]",0.1
7,"Cc1cc(OCc2c(F)cccc2F)c2nc(C)c(C(=O)NC3CC3N)n2c1 (racemic) [Example 330, rac-N-(2-aminocyclopropyl)-8-[(2,6-difluorobenzyl)oxy]-2,6-dimethylimidazo[1,2-a]pyridine-3-carboxamide]",0.30
8,"Cc1cc(OCc2c(F)cccc2F)c2nc(C)c(C(=O)NC3CCC3(C)N)n2c1 (racemic) [Example 331, rac-N-(2-amino-2-methylcyclobutyl)-8-[(2,6-difluorobenzyl)oxy]-2,6-dimethylimidazo[1,2-a]pyridine-3-carboxamide]",0.30
9,"Cc1nc2c(OCc3c(F)cccc3F)cc(Cl)cn2c1C(=O)NCC(C)(N)C(F)(F)F (racemic) [Example 236, rac-N-(2-Amino-3,3,3-trifluoro-2-methylpropyl)-6-chloro-8-[(2,6-difluorobenzyl)oxy]-2-methylimidazo[1,2-a]pyridine-3-carboxamide]",0.30
10,"Cc1nc2c(OCc3c(F)cccc3F)cc(Cl)cn2c1C(=O)NCC1CCCCN1 (single isomer, unassigned; ent-6) [Example 191, ent-6-Chloro-8-[(2,6-difluorobenzyl)oxy]-2-methyl-N-(piperidin-2-ylmethyl)imidazo[1,2-a]-pyridine-3-carboxamide]",1.00
11,"Cc1cc(OCCC(C)C)c2nc(C)c(C(=O)NCC(C)(N)CC(C)C)n2c1 (racemic) [Example 249, rac-N-(2-Amino-2,4-dimethylpentyl)-2,6-dimethyl-8-(3-methylbutoxy)imidazo[1,2-a]pyridine-3-carboxamide]",1.00
12,"Cc1nc2c(OCc3c(F)cccc3F)cc(Cl)cn2c1C(=O)NCC1CCCCN1 (racemic) [Example 118, rac-6-chloro-8-[(2,6-difluorobenzyl)oxy]-2-methyl-N-(piperidin-2-ylmethyl)imidazo[1,2-a]-pyridine-3-carboxamide]",1.00
13,"Cc1cc(OCc2c(F)cccc2F)c2nc(C)c(C(=O)NC[C@@H]3CCCN3)n2c1 [Example 115, 8-[(2,6-difluorobenzyl)oxy]-2,6-dimethyl-N-[(2S)-pyrrolidin-2-ylmethyl]imidazo[1,2-a]-pyridine-3-carboxamide]",1.00
14,"Cc1nc2c(OCc3c(F)ccc(F)c3F)cccn2c1C(=O)NC(CN)c1ccc(F)c(F)c1 (stereo not drawn) [Example 100, ent-N-[2-amino-1-(3,4-difluorophenyl)ethyl]-2-methyl-8-[(2,3,6-trifluorobenzyl)oxy] imidazo[1,2-a]pyridine-3-carboxamide]",0.30
